We go through 25 compounds from US9303012B2, “Pyridine-2-amides useful as CB2 agonists” (Hoffmann-La Roche Inc., priority 2012, dated 2016).

SMILES strings stand for the structures. Where only a bound is given, the exact number is not on record here.

One assay addresses human CB1 receptors (Homo sapiens (Human), UniProt P21554). Kind of assay: functional cAMP assay, CHO cells expressing human CB1 receptors. Type of assay: cell-based. As for the experimental part:
(§1) CHO cells expressing human CB1 or CB2 receptors are seeded 17-24 hours prior to the experiment 50.000 cells per well in a black 96 well plate with flat clear bottom (Corning Costar #3904) in DMEM (Invitrogen No. 31331), 1×HT supplement, with 10% fetal calf serum and incubated at 5% CO2 and 37° C. in a humidified incubator. The growth medium was exchanged with Krebs Ringer Bicarbonate buffer with 1 mM IBMX and incubated at 30° C. for 30 min. Compounds were added to a final assay volume of 100 μl and incubated for 30 min at 30° C. Using the cAMP-Nano-TRF detection kit the assay (Roche Diagnostics) was stopped by the addition of 50 μl lysis reagent (Tris, NaCl, 1.5% Triton X100, 2.5% NP40, 10% NaN3) and 50 μl detection solutions (20 μM mAb Alexa700-cAMP 1:1, and 48 μM Ruthenium-2-AHA-cAMP) and shaken for 2 h at room temperature. The time-resolved energy transfer is measured by a TRF reader (Evotec Technologies GmbH), equipped with a ND:YAG laser as excitation source. The plate is measured twice with the excitation at 355 nm and at the emission with a delay of 100 ns and a gate of 100 ns, total exposure time 10 s at 730 (bandwidth 30 nm) or 645 nm (bandwidth 75 nm), respectively. The FRET signal is calculated as follows: FRET=T730-Alexa730-P(T645-B645) with P=Ru730-B730/Ru645-B645, where T730 is the test well measured at 730 nM, T645 is the test well measured at 645 nm, B730 and B645 are the buffer controls at 730 nm and 645 nm, respectively. cAMP content is determined from the function of a standard curve spanning from 10 μM to 0.13 nM cAMP.
(§2) EC50 values were determined using Activity Base analysis (ID Business Solution, Limited). The EC50 values for a wide range of cannabinoid agonists generated from this assay were in agreement with the values published in the scientific literature.

Another assay concerns the target human CB2 receptors (Homo sapiens (Human), UniProt P34972). Kind of assay: functional cAMP assay, CHO cells expressing human CB2 receptors. It is filed as cell-based. The procedure: as §1, §2
Background: Cyclic AMP is a second messenger, typically raised through Gs and lowered through Gi signalling.

human CB2 receptors, sequence (P34972 whole entry): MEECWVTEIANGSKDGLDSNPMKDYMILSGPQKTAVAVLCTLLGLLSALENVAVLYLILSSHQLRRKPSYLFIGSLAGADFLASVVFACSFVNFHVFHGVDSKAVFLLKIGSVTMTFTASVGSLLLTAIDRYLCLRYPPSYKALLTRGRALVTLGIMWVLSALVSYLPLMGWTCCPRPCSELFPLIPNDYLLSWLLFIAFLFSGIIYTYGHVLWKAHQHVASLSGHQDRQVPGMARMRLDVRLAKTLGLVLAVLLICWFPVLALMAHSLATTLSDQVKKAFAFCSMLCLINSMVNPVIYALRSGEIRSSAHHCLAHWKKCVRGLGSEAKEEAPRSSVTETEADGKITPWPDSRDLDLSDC
human CB1 receptors, sequence (P21554 whole entry): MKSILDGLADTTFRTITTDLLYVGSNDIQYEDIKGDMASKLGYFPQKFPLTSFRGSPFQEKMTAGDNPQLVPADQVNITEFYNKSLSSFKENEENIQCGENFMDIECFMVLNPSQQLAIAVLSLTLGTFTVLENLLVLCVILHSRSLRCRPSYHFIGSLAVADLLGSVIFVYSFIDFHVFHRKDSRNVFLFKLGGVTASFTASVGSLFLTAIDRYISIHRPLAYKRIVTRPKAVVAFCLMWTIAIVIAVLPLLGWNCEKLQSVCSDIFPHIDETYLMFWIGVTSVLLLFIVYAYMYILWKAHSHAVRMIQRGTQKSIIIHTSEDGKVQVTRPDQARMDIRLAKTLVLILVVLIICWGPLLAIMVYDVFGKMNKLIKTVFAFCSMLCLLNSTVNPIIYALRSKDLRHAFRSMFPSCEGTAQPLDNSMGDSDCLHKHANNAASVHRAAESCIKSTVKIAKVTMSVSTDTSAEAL

On to `CC1(C)CCCN1C(=O)c1ccc(OCC2CC2)c(Cl)n1` [Example 47, (6-Chloro-5-cyclopropylmethoxy-pyridin-2-yl)-(2,2-dimethyl-pyrrolidin-1-yl)-methanone], for which the EC50 (as a rule, the concentration that produces a half-maximal response) on human CB1 receptors was above 10000 nM; on human CB2 receptors, 113 nM.
For the compound `CC1(C)COCN1C(=O)c1ccc(OC(F)(F)F)c(OCC2CC2)n1` [Example 48, (6-Cyclopropylmethoxy-5-trifluoromethoxy-pyridin-2-yl)-(4,4-dimethyl-oxazolidin-3-yl)-methanone], the half-maximal effective concentration (EC50) at human CB1 receptors is above 10000 nM; at human CB2 receptors, 108 nM.
The corresponding values for `CC1(C)COCN1C(=O)c1ccc(OCC2CC2)c(Cl)n1` [Example 49, (6-Chloro-5-cyclopropylmethoxy-pyridin-2-yl)-(4,4-dimethyl-oxazolidin-3-yl)-methanone] are above 10000 nM and 139 nM.
As for `CC(=O)N1CCC(N(C(=O)c2ccc(N3CC(F)(F)C3)c(OCC3CC3)n2)C2CC2)CC1` [Example 50, 6-Cyclopropylmethoxy-5-(3,3-difluoro-azetidin-1-yl)-pyridine-2-carboxylic acid (1-acetyl-piperidin-4-yl)-cyclopropyl-amide], the EC50 on human CB1 receptors was above 10000 nM; on human CB2 receptors it was 237 nM.
Take `CN(C=O)C(=O)c1ccc(N2CC(F)(F)C2)c(OCC2CC2)n1` [Example 51, 6-(Cyclopropylmethoxy)-5-(3,3-difluoroazetidin-1-yl)-N-formyl-N-methylpyridine-2-carboxamide]: the EC50 at human CB1 receptors was above 10000 nM; on human CB2 receptors, 789 nM.
For `CN(C(=O)c1ccc(N2CC(F)(F)C2)c(OCC2CC2)n1)c1ccccc1` [Example 52, 6-Cyclopropylmethoxy-5-(3,3-difluoro-azetidin-1-yl)-pyridine-2-carboxylic acid methyl-phenyl-amide], the EC50 on human CB1 receptors is above 10000 nM; on human CB2 receptors, 645 nM.
With `O=C(c1ccc(N2CC(F)(F)C2)c(OCC2CC2)n1)N1CC(F)(F)C[C@H]1CO` [Example 53, [6-Cyclopropylmethoxy-5-(3,3-difluoro-azetidin-1-yl)-pyridin-2-yl]-((S)-4,4-difluoro-2-hydroxymethyl-pyrrolidin-1-yl)-methanone], the EC50 at human CB1 receptors is above 10000 nM; at human CB2 receptors, 3.7 nM.
The like results for `Cc1cn(C)nc1N(C)C(=O)c1ccc(N2CC(F)(F)C2)c(OCC2CC2)n1` [Example 54, 6-Cyclopropylmethoxy-5-(3,3-difluoro-azetidin-1-yl)-pyridine-2-carboxylic acid (1,4-dimethyl-1H-pyrazol-3-yl)-methyl-amide] were, in that order, above 10000 nM and 462 nM.
The like results for `CC1(C)CN(C(=O)c2ccc(N3CC(F)(F)C3)c(OCC3CC3)n2)CCO1` [Example 55, [6-Cyclopropylmethoxy-5-(3,3-difluoro-azetidin-1-yl)-pyridin-2-yl]-(2,2-dimethyl-morpholin-4-yl)-methanone] were, in that order, above 10000 nM and 55.4 nM.
With `CN1C(=O)CN(C(=O)c2ccc(N3CC(F)(F)C3)c(OCC3CC3)n2)[C@@H]1C(C)(C)C` [Example 56, (R)-2-tert-Butyl-1-[6-cyclopropylmethoxy-5-(3,3-difluoro-azetidin-1-yl)-pyridine-2-carbonyl]-3-methyl-imidazolidin-4-one], the EC50 at human CB1 receptors was above 10000 nM; at human CB2 receptors, 36.9 nM.
Consider `O=C(c1ccc(N2CC(F)(F)C2)c(OCC2CC2)n1)N1CCCC12CC2` [Example 57, (4-Aza-spiro[2.4]hept-4-yl)-[6-cyclopropylmethoxy-5-(3,3-difluoro-azetidin-1-yl)-pyridin-2-yl]-methanone], for which the EC50 was above 10000 nM on human CB1 receptors and 1.8 nM at human CB2 receptors.
The like results for `CC1(C)CC(C2CCN(C(=O)c3ccc(N4CC(F)(F)C4)c(OCC4CC4)n3)CC2)C(=O)N1` (centres unmarked) [Example 58, 3-{1-[6-Cyclopropylmethoxy-5-(3,3-difluoro-azetidin-1-yl)-pyridine-2-carbonyl]-piperidin-4-yl}-5,5-dimethyl-pyrrolidin-2-one] were, in that order, above 10000 nM and 594 nM.
The like results for `O=C(c1ccc(N2CC(F)(F)C2)c(OCC2CC2)n1)N1C[C@@H]2CC[C@H]1C2` [Example 59, (1S,4R)-2-Aza-bicyclo[2.2.1]hept-2-yl-[6-cyclopropylmethoxy-5-(3,3-difluoro-azetidin-1-yl)-pyridin-2-yl]-methanone] were, in that order, above 10000 nM and 14.2 nM.
On to `NC(=O)[C@@H]1CC(F)(F)CN1C(=O)c1ccc(N2CC(F)(F)C2)c(OCC2CC2)n1` [Example 60, (S)-1-[6-Cyclopropylmethoxy-5-(3,3-difluoro-azetidin-1-yl)-pyridine-2-carbonyl]-4,4-difluoro-pyrrolidine-2-carboxylic acid amide], for which the EC50 at human CB1 receptors was above 10000 nM; at human CB2 receptors, 3.08 nM.
The corresponding values for `CC1(O)CCN(C(=O)c2ccc(N3CC(F)(F)C3)c(OCC3CC3)n2)CC1` [Example 61, [6-Cyclopropylmethoxy-5-(3,3-difluoro-azetidin-1-yl)-pyridin-2-yl]-(4-hydroxy-4-methyl-piperidin-1-yl)-methanone] are above 10000 nM and 391 nM.
Consider `O=C(c1ccc(N2CC(F)(F)C2)c(OCC2CC2)n1)N1C[C@@H]2C[C@H]1CS2` [Example 62, [6-Cyclopropylmethoxy-5-(3,3-difluoro-azetidin-1-yl)-pyridin-2-yl]-(1S,4S)-2-thia-5-aza-bicyclo[2.2.1]hept-5-yl-methanone], for which the EC50 at human CB1 receptors was above 10000 nM; at human CB2 receptors, 9.1 nM.
The like results for `O=C(c1ccc(N2CC(F)(F)C2)c(OCC2CC2)n1)N1C[C@@H]2C[C@H]1CN2Cc1ccccc1` [Example 63, ((1S,4S)-5-Benzyl-2,5-diaza-bicyclo[2.2.1]hept-2-yl)-[6-cyclopropylmethoxy-5-(3,3-difluoro-azetidin-1-yl)-pyridin-2-yl]-methanone] were, in that order, above 10000 nM and 198 nM.
The like results for `CC1C(c2ccccc2)CCCN1C(=O)c1ccc(N2CC(F)(F)C2)c(OCC2CC2)n1` (centres unmarked) [Example 64, [6-Cyclopropylmethoxy-5-(3,3-difluoro-azetidin-1-yl)-pyridin-2-yl]-(2-methyl-3-phenyl-piperidin-1-yl)-methanone] were, in that order, above 10000 nM and 40.5 nM.
With `O=C(c1ccc(N2CC(F)(F)C2)c(OCC2CC2)n1)N1C[C@@H]2C[C@H]1CO2` [Example 65, [6-Cyclopropylmethoxy-5-(3,3-difluoro-azetidin-1-yl)-pyridin-2-yl]-(1S,4S)-2-oxa-5-aza-bicyclo[2.2.1]hept-5-yl-methanone], the EC50 at human CB1 receptors was above 10000 nM; on human CB2 receptors, 100 nM.
On to `CC1(C)CC(O)CCN1C(=O)c1ccc(N2CC(F)(F)C2)c(OCC2CC2)n1` (centres unmarked) [Example 66, [6-Cyclopropylmethoxy-5-(3,3-difluoro-azetidin-1-yl)-pyridin-2-yl]-(4-hydroxy-2,2-dimethyl-piperidin-1-yl)-methanone], for which the values for the concentration giving a half-maximal response (EC50) at human CB1 receptors and on human CB2 receptors were above 10000 nM and 5.6 nM, respectively.
The corresponding values for `CCOC(=O)C1CCCN(C(=O)c2ccc(N3CC(F)(F)C3)c(OCC3CC3)n2)C1c1ccccc1` (centres unmarked) [Example 67, 1-[6-Cyclopropylmethoxy-5-(3,3-difluoro-azetidin-1-yl)-pyridine-2-carbonyl]-2-phenyl-piperidine-3-carboxylic acid ethyl ester] are above 10000 nM and 368 nM.
As to `NC(=O)[C@@H]1CC(F)(F)CN1C(=O)c1ccc(C2CC2)c(OCC2CC2)n1` [Example 68, (S)-1-(5-Cyclopropyl-6-cyclopropylmethoxy-pyridine-2-carbonyl)-4,4-difluoro-pyrrolidine-2-carboxylic acid amide], the 50% effective concentration (EC50) was above 10000 nM at human CB1 receptors and 2.7 nM on human CB2 receptors.
On to `NC(=O)[C@@H]1C[C@H](F)CN1C(=O)c1ccc(C2CC2)c(OCC2CC2)n1` [Example 69, (2S,4S)-1-(5-Cyclopropyl-6-cyclopropylmethoxy-pyridine-2-carbonyl)-4-fluoro-pyrrolidine-2-carboxylic acid amide], for which the 50% effective concentration (EC50) on human CB1 receptors is above 10000 nM; at human CB2 receptors it was 1040 nM.
The corresponding values for `O=C(c1ccc(N2CC(F)(F)C2)c(OCC2CC2)n1)N1CC2CCOC2C1` (centres unmarked) [Example 70, [6-Cyclopropylmethoxy-5-(3,3-difluoro-azetidin-1-yl)-pyridin-2-yl]-(hexahydrofuro[2,3-c]pyrrol-5-yl)-methanone] are above 10000 nM and 104 nM.
Regarding `O=C(c1ccc(N2CC(F)(F)C2)c(OCC2CC2)n1)N1CC2(C1)CS(=O)(=O)C2` [Example 71, [6-Cyclopropylmethoxy-5-(3,3-difluoro-azetidin-1-yl)-pyridin-2-yl]-(2,2-dioxo-2λ6-thia-6-aza-spiro[3.3]hept-6-yl)-methanone], the EC50 is above 10000 nM on human CB1 receptors and 444 nM on human CB2 receptors.
